Values after ≈ are worked out from the molar mass of the structure shown.

This is an account of results in patent US20070196484A1, “Poorly water-soluble drug-containing solid formulation” (priority 2004, published 2007).

Data set [1] relates to SD male rats. Kind of data set: Oral administration test, onset of catharsis. Format: in vivo, rat. To be noted: bisacodyl 2 mg/kg, DSS 3.2 mg/kg, observed 24 hours, FIG. 3. Here is the method: (§1) SD male rats were used in 10 animals per group. Test substances used were bisacodyl alone (2 mg/kg), DSS alone (3.2 mg/kg) and bisacodyl (2 mg/kg)+DSS (3.2 mg/kg).
The test system of data set [2] is SD male rats. The data set can be described thus: Intra-ileal administration test, onset of catharsis. The data set is classed as in vivo, rat. The note with it: bisacodyl 2 mg/kg, DSS 3.2 mg/kg, observed 24 hours, FIG. 3. As to the method:
as §1
A rat underwent laparotomy under ether anesthesia and a test substance was injected via a syringe into an ileum at 20 cm to the mouth from the ileocecum at a dose of 1 mL/kg rat weight.

Data set [3] in a line: Solubility of bisacodyl in the co-existence of dioctyl sodium sulfosuccinate. The note with it: for solubility at 5 h: thermodynamic from solid. Format: physicochemical. Here is the method: Variation in solubility of bisacodyl was studied in the co-existence of bisacodyl and dioctyl sodium sulfosuccinate. Bisacodyl was dispersed in purified water and the dispersion was shaken under given conditions for 5 hours. The resulting liquid was centrifuged at 3000 min^−1 for 5 min. Then, the supernatant was collected and the amount of dissolved bisacodyl was determined by HPLC. In a similar manner, bisacodyl was dispersed in solutions containing dioctyl sodium sulfosuccinate at 0.07%, 0.14% and 0.35%. Each dispersion was shaken and centrifuged at 3000 min^−1 for 5 min. Then, the supernatant was collected and the amount of dissolved bisacodyl was determined by HPLC.

Regarding `CCCCC(CC)COC(=O)CC(C(=O)OCC(CC)CCCC)S(=O)(=O)[O-].[Na+]` (stereo not drawn) [DSS, Dioctyl sodium sulfosuccinate], the “Cathartic effect (catharsis incidence)” value in the data set with SD male rats [1] and with SD male rats [2] was “cathartic effect was not observed” throughout.

As for `CC(=O)Oc1ccc(C(c2ccc(OC(C)=O)cc2)c2ccccn2)cc1` [Bisacodyl], the solubility (in general, how much of the substance goes into solution per volume) at 5 h in data set [3] (0.07% dioctyl sodium sulfosuccinate aqueous solution, aqueous with cosolvent or surfactant or cyclodextrin, Sample 1: 0.07% DSS aq.) stood at 3.62 µg/mL (≈ 10 µM); in data set [3] (0.14% dioctyl sodium sulfosuccinate aqueous solution, aqueous with cosolvent or surfactant or cyclodextrin, Sample 2: 0.14% DSS aq.), 4.51 µg/mL (≈ 12.5 µM); in data set [3] (0.35% dioctyl sodium sulfosuccinate aqueous solution, aqueous with cosolvent or surfactant or cyclodextrin, Sample 3: 0.35% DSS aq.), 12.7 µg/mL (≈ 35.1 µM); in data set [3] (Control: purified water, 0% DSS, shaken 5 hours), 1.89 µg/mL (≈ 5.23 µM). In addition, the “Proportion to control (solubility of bisacodyl)” value in data set [3] (Sample 1: 0.07% DSS aq.) was determined as 191.5%; in data set [3] (Sample 2: 0.14% DSS aq.) it was 238.6%; in data set [3] (Sample 3: 0.35% DSS aq.) it was 672.0%.
